How the values were obtained:
sPHEX = target: T1, sPHEX (Homo sapiens, UniProt P78562); assay: sPHEX inhibitor IC50 determination using a fluorogenic substrate (Abz-GFSDYK-Dnp, S3); type: biochemical; settings: fluorogenic substrate 20 μM, 100 ng sPHEX, pH 6.5
T1 construct: The soluble form of the metallopeptidase PHEX (sPHEX) was purified to homogeneity; made in house
T1 sequence (P78562 53-749 limits assumed): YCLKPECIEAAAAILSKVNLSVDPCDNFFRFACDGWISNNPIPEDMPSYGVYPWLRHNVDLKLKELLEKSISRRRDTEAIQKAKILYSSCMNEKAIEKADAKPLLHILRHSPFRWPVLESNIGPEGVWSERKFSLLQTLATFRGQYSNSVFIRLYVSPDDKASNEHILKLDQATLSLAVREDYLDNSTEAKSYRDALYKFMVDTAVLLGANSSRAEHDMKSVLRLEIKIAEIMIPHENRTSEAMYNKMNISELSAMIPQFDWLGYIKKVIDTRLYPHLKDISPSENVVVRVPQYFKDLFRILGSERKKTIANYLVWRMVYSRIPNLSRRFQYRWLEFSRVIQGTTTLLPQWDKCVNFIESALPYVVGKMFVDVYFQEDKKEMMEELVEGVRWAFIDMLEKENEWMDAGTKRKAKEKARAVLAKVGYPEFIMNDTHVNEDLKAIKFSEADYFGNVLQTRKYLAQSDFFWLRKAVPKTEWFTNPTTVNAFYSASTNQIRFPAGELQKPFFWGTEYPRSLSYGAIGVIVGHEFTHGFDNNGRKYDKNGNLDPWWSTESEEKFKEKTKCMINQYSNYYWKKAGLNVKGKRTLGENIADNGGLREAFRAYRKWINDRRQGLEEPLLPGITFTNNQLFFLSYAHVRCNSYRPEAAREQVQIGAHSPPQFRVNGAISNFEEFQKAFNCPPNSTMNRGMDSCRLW
Protocol: The soluble form of the metallopeptidase PHEX (sPHEX) was purified to homogeneity according to the methods of Boileau and Crine (WO 00/50580). sPHEX quantity was measured with the Bradford assay (BioRad) using BSA as a standard.
sPHEX activity was determined using a fluorogenic substrate in which an increase of fluorescence was proportional to substrate conversion to products.
S3 was synthesized at Dr. Gilles Lajoie's laboratories (University of Western Ontario, Canada) by standard solid phase peptide synthesis. The fluorescent reaction product was excited at 320 nm to fluoresce at 420 nm. Fluorescence was recorded at 420 nm every five minutes over a one-hour period on a fluorescence plate reader (Perkin-Elmer, HTS-7000) to calculate the initial rate of the reaction. Typically, the reaction was carried out in 200 μl of buffer M (50 mM Mes(NaOH) pH 6.5, 150 mM NaCl) containing 100 ng of purified sPHEX and 20 μM of fluorigenic substrate to initiate the reaction. Enzymatic activity was determined by subtracting either the initial rate of substrate in buffer (solvolysis), or the typical reaction rate in which 5 mM EDTA was added prior to initiating the reaction.
sPHEX inhibitor IC50 determinations were done using the tested inhibitor at various concentrations coming from a serial dilution (usually ranging from 10^−3 M to 10^−12 M) in the reaction described above. IC50 values were calculated using the iterative four parameters non-linear regression formula from the GraphPad™ software (Prism).

rat mandibular defect = assay: Bone lesion repair in rat mandibular defect model (hydroxyapatite particles soaked in inhibitor); type: in vivo; settings: for bone formation (scanning electron microscopy, % of total defect area): 14 days of healing
Protocol: Osteogenic properties of PHEX inhibitors can be shown in a model of rat mandibular defect. For example, a 2 mm size bone defect was created in the rat mandible as described previously (Vu et al., 1999). Rats were anesthetized and the vestibular surface of the right mandibular ramus was exposed as follow: an incision was made through the skin along an imaginary line forming a 90° angle with the lower lip to access the muscle layer. A scalpel blade was used to make an incision parallel to the fibers of the deep portion of masseter muscle, about 2 mm posterior to the facial artery (largest branch of the external carotid), in the portion where it gives rise to the labial mandibular artery. The periosteum was elevated and the underlying bony surface exposed. A 2 mm×2 mm bony window was drilled between the second and third molar using a slow-speed dental drill with a carbide round burr size 1.4 mm (Brasseler) and a drill size 2 mm (Straumann Canada Ltd). Saline irrigation was used during the drilling. Porous hydroxyapatite particles (Fin-Ceramica Faenza s.r.l.) with pore size ranged from 450 to 600 μm were accommodated in the bony hole and pushed into it. The particles had been incubated previously in solutions of varying concentrations of PHEX inhibitor or vehicle for 16 to 24 hours at 4° C. Once the bony window was filled the lesion was covered with a membrane of hydroxyapatite (Fin-Ceramica Faenza s.r.l.) which was fixed to the surrounding bone surface with topical tissue adhesive. The muscle fibers were carefully repositioned on the mandible and sutured with absorbable surgical sutures (Chromic Gut, Ethicon Inc.). The skin was sutured for total coverage with silk sutures (Sherwood Davis & Geck, Wayne). After 7 days of treatment the bone lesion was exposed and varying concentrations of PHEX inhibitor or vehicle was reapplied to hydroxyapatite particles. Treatment was continued for another 7 days.
After the 14 day healing period, bone formation at the defect was evaluated by scanning electron microscopy and microcomputed tomography. Animals were sacrificed by intravascular perfusion through the left ventricle with 4% paraformaldehyde and 0.1% glutaraldehyde solution. Treated hemimandibles were taken, immersed in the fixative overnight at 4° C. then washed and kept in 0.1 M cacodylate buffer pH 8.0 until analysis. Specimens for quantification by scanning electron microscopy were dehydrated in a graded alcohol series and embedded in LR White resin (Marivac) for further sectioning along their longitudinal axis. […] Amount of bone tissue present in the sections was quantified by manual tracing using the MOP-3 system (Carl Zeiss) and was expressed as a percentage of the total defect area.

IC50 (sPHEX): 17 nM
SMILES: O=C(O)CC(CC(=O)NO)C(=O)NCCc1ccc(-c2ccccc2)cc1 (centres unmarked) [Example 126, 3-(2-Biphenyl-4-yl-ethylcarbamoyl)4-hydroxycarbamoyl-butyric acid]
bone formation (scanning electron microscopy, % of total defect area) (rat mandibular defect; 1×10^−5 M on hydroxyapatite particles, compared to saline): reduced significantly
bone formation (microcomputed tomography 3D reconstruction) (rat mandibular defect; high inhibitor dose, one representative specimen per group): reduced bone formation
bone around particles (microcomputed tomography 3D reconstruction) (rat mandibular defect; low dose of inhibitor vs saline, one representative specimen per group): more bone
bone formation (scanning electron microscopy, % of total defect area) (rat mandibular defect; lower concentrations on hydroxyapatite particles): significantly stimulated
